Measured values from patent publication US8580769B2, “Treatment of obesity, metabolic syndrome, and diabetes with protein kinase C inhibitors” (The United States of America as represented by the …, priority 2011, dated 2013).

Columns and labels:
Akt2 = target: T1, Akt2 (Homo sapiens, UniProt P31751); assay: Akt2 activity in human hepatocytes; format: cell-based
T1 construct: host or cells: primary human hepatocytes
Experimental: After thawing, the hepatocytes were distributed (approximately 10^6 cells per 100 mm plate) and incubated approximately 16 hours overnight in Dulbecco's minimal essential medium containing 5% fetal calf serum, 100 units/ml sodium-penicillin, 100 μg/ml streptomycin-sulfate, 1 μM insulin and 2 μM dexamethasone. After washing, cells were incubated first for 2 hours in William's E medium (Sigma-Aldrich, St. Louis, Mo., catalog no. W1878) containing GLUTAMAX™ (Gibco/Invitrogen, Carlsbad, Calif.), 100 units/ml sodium-penicillin, 100 μg/ml streptomycin-sulfate, 10 μM insulin, 100 nM dexamethasone, and then for 2 hours in William's E medium containing 100 units/ml sodium penicillin, 100 μg/ml streptomycin-sulfate, 100 nM dexamethasone, 0.25 mg/ml transferrin, 0.25 μg/ml sodium selenite and 10 μM insulin. Cells were then washed and incubated for 3 hours in the same medium, but lacking insulin. […]
Akt2 Assay: Akt2 enzyme activity was measured with a kit obtained from Upstate Cell Signaling, as described (Standaert et al., J. Biol. Chem. 279:24929-24934, 2004; Sajan et al., J. Lipid Res. 50:1133-1145, 2009; Sajan et al., Diabetologia 52:1197-1207, 2009; Farese et al., J. Clin. Invest. 117:2289-2301, 2007). […] Akt1/2 activation was also assessed by immunoblotting for phosphorylation of serine-473.

human hepatocytes = assay: mRNA expression of lipogenic, inflammatory and glucogenic markers in human hepatocytes (RT-PCR); format: cell-based; settings: for expression of G6 Pase / expression of PEPCK: hepatocytes of non-diabetic and T2DM humans, inhibitor alone or with insulin; for expression of ACC / expression of FAS / expression of IL-1β / expression of SREBP-1c / expression of TNF-α: hepatocytes of non-diabetic and/or T2DM humans
Experimental: After thawing, the hepatocytes were distributed (approximately 10^6 cells per 100 mm plate) and incubated approximately 16 hours overnight in Dulbecco's minimal essential medium containing 5% fetal calf serum, 100 units/ml sodium-penicillin, 100 μg/ml streptomycin-sulfate, 1 μM insulin and 2 μM dexamethasone. After washing, cells were incubated first for 2 hours in William's E medium (Sigma-Aldrich, St. Louis, Mo., catalog no. W1878) containing GLUTAMAX™ (Gibco/Invitrogen, Carlsbad, Calif.), 100 units/ml sodium-penicillin, 100 μg/ml streptomycin-sulfate, 10 μM insulin, 100 nM dexamethasone, and then for 2 hours in William's E medium containing 100 units/ml sodium penicillin, 100 μg/ml streptomycin-sulfate, 100 nM dexamethasone, 0.25 mg/ml transferrin, 0.25 μg/ml sodium selenite and 10 μM insulin. Cells were then washed and incubated for 3 hours in the same medium, but lacking insulin. Where indicated, an aPKC inhibitor was then added and incubation was continued for 30 min, after which, cells were treated either for 15 min with or without 100 nM insulin for acute signaling studies, […] After incubation, cells were sonicated in homogenizing buffer.
mRNA Measurements: As previously described (Sajan et al., J. Lipid Res. 50:1133-1145, 2009; Sajan et al., Diabetologia 52:1197-1207, 2009; Farese et al., J. Clin. Invest. 117:2289-2301, 2007), tissues were added to TRIZOL® reagent (Invitrogen) and RNA was extracted and purified with the RNEASY® Mini-Kit (Qiagen; Valencia, Calif.) and RNAase-free DNAase set (Qiagen) as per kit instructions, quantified by measuring A260/A280, further checked for purity by electrophoresis on 1.2% agarose gels, and mRNA quantified by quantitative real-time reverse transcriptase-polymerase chain reaction (RT-PCR). Reverse transcription was accomplished with TAQMAN® reverse transcription reagent from Applied Biosystems (Foster City, Calif., USA). mRNAs were measured with a SYBR® Green kit (Applied Biosystems) using the nucleotide primers shown in Table 1.

[1] = system: AMP-activated protein kinase; assay: AMP-activated protein kinase activity
[2] = non-diabetic human hepatocytes, 6 hours, 100 nM insulin, 100 nM ICAP

T1 sequence (P31751 whole entry): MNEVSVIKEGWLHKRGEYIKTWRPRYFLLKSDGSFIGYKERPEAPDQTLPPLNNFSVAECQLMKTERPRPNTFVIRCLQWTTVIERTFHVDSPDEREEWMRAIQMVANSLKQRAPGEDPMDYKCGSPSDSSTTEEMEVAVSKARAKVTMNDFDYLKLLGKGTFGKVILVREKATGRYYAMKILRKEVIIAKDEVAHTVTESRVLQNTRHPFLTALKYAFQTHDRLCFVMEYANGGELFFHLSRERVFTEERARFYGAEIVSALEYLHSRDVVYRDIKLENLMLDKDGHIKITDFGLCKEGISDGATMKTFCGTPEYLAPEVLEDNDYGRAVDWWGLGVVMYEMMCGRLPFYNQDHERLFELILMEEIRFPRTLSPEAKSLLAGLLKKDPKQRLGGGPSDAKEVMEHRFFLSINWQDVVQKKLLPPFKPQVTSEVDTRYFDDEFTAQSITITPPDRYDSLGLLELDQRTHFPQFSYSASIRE

SMILES | insulin-induced increases in Akt activity (Akt2) | expression of G6 Pase (human hepatocytes) | expression of PEPCK (human hepatocytes) | expression of ACC (human hepatocytes) | expression of FAS (human hepatocytes) | expression of IL-1β (human hepatocytes) | expression of SREBP-1c (human hepatocytes) | expression of TNF-α (human hepatocytes) | AMP-activated protein kinase activity [1] | effects on insulin-provoked aPKC activity and mRNA levels in hepatocytes of diabetic humans (human hepatocytes; hepatocytes of diabetic humans) | insulin-provoked increase in ACC mRNA (human hepatocytes; [2]) | insulin-provoked increase in FAS mRNA (human hepatocytes; [2]) | insulin-provoked increase in IL-1β mRNA (human hepatocytes; [2]) | insulin-provoked increase in SREBP-1c mRNA (human hepatocytes; [2]) | insulin-provoked increase in TNF-α mRNA (human hepatocytes; [2])
NC(=O)c1ncn([C@@H]2C[C@H](COP(=O)(O)O)[C@@H](O)[C@H]2O)c1N [ICAPP, 1H-imidazole-4-carboxamide, 5-amino-1-[2,3-dihydroxy-4-[(phosphonooxy)methyl]cyclopentyl]-[1R-(1α,2β,3β,4α)]] | neither ICAPP nor ATM inhibited | insulin-like, or enhanced insulin, effects | insulin-like, or enhanced insulin, effects | diminished | diminished | diminished | diminished | diminished | neither ICAPP nor ATM altered |  |  |  |  |  | 
NC(=O)c1ncn([C@@H]2C[C@H](CO)[C@@H](O)[C@H]2O)c1N [ICAP, 1H-imidazole-4-carboxamide 5-amino-1-[2,3-dihydroxy-4-[hydroxymethyl]cyclopentyl]-[1R-(1α,2β,3β,4α)]] |  |  |  |  |  |  |  |  |  | Comparable results | inhibited | inhibited | inhibited | inhibited | inhibited
O=C([O-])CC([S][Au])C(=O)[O-] (stereo not drawn) [ATM, aurothiomalate, reference compound] | neither ICAPP nor ATM inhibited | insulin-like, or enhanced insulin, effects | insulin-like, or enhanced insulin, effects | diminished | diminished | diminished | diminished | diminished | neither ICAPP nor ATM altered |  |  |  |  |  | 
